Source: ChEMBL document CHEMBL2169869, “Assay and inhibition of diacylglycerol lipase activity” (Bioorg Med Chem Lett, 2012)
The source made the active and inactive calls. The rule behind the calls is not given here.

Assays:
[1] = molecular target: T1, Diacylglycerol lipase-alpha (Mus musculus) (UniProt Q6WQJ1); experiment: Inhibition of mouse DAGLalpha expressed in HEK293T cell membrane using [14C]SAG substrate at 10 nM by scintillation counting based radio-TLC assay; type: cell membranes; conditions: HEK-293T
T1 sequence (whole entry): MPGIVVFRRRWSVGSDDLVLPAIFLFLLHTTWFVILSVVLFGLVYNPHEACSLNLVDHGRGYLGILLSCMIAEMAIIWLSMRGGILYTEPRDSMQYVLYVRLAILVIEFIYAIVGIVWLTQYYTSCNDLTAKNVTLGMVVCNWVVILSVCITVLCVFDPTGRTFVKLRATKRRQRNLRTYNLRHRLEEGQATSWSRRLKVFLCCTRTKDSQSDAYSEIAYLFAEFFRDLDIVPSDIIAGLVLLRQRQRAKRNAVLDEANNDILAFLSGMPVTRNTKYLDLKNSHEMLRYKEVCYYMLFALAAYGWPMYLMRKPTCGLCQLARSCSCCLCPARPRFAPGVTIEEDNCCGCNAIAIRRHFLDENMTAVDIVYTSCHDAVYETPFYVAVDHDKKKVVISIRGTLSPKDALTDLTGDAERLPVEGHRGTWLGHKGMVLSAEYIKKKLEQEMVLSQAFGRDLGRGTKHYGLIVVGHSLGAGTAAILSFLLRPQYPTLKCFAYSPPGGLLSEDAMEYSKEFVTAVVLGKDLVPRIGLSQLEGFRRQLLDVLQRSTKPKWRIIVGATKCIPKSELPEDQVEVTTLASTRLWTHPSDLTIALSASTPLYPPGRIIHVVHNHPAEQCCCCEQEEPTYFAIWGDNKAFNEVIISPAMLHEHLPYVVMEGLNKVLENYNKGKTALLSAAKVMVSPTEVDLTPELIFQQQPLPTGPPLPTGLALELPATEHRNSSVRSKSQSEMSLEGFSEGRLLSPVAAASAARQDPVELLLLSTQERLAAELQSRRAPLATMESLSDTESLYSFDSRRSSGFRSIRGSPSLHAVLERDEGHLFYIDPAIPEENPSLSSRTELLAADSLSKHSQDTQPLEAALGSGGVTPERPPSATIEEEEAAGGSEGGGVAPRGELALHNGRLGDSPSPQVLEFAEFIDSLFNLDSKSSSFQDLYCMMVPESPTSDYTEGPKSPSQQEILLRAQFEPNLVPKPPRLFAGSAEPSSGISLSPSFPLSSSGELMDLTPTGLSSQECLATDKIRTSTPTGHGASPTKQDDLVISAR

[2] = molecular target: T1, Diacylglycerol lipase-alpha (Mus musculus); experiment: Inhibition of mouse DAGLalpha expressed in HEK293T cell membrane using [14C]SAG substrate at 10000 nM by scintillation counting based radio-TLC assay; type: cell membranes; conditions: HEK-293T
[3] = molecular target: T2, Diacylglycerol lipase-alpha (Homo sapiens) (UniProt Q9Y4D2); experiment: Inhibition of human DAGLalpha expressed in HEK293T cell membrane using [14C]SAG substrate at 10 uM in detergent free solution by scintillation counting based radio-TLC assay; conditions: HEK-293T
T2 sequence (whole entry): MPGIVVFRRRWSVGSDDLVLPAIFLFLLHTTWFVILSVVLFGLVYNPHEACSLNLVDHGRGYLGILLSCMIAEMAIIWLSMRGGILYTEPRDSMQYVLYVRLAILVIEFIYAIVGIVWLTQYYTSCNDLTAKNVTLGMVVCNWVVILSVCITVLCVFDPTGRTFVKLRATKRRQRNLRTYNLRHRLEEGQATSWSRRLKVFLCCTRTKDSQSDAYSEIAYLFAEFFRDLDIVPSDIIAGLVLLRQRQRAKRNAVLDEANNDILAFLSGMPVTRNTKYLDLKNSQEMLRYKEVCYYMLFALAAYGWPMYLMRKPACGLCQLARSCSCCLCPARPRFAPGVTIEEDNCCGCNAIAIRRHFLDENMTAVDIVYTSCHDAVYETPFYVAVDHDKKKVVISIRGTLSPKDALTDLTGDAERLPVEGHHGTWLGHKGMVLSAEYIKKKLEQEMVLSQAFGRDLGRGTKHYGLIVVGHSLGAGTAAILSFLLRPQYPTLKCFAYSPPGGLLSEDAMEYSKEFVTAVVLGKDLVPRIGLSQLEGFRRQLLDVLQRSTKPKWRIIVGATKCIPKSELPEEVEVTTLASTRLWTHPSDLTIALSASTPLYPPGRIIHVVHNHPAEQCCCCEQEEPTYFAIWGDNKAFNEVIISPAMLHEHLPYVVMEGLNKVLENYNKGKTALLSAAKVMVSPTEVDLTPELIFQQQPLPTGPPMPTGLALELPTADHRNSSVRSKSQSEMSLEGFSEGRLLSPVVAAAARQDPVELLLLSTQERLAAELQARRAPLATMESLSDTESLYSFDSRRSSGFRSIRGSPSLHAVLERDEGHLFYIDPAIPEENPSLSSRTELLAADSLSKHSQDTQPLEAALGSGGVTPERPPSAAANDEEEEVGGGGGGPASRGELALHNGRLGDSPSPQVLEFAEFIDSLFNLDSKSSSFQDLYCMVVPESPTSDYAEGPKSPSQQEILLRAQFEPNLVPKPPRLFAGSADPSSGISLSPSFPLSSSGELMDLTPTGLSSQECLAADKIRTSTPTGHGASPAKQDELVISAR

[4] = organism: Sus scrofa; experiment: Inhibition of porcine pancreatic lipase type 2 at 10 uM by FRET assay
[5] = molecular target: T3, Fatty-acid amide hydrolase 1 (Rattus norvegicus) (UniProt P97612); experiment: Inhibition of rat histidine tagged FAAH expressed in Escherichia coli at 10 uM by coumarin ester substrate fluorescence assay
T3 sequence (whole entry): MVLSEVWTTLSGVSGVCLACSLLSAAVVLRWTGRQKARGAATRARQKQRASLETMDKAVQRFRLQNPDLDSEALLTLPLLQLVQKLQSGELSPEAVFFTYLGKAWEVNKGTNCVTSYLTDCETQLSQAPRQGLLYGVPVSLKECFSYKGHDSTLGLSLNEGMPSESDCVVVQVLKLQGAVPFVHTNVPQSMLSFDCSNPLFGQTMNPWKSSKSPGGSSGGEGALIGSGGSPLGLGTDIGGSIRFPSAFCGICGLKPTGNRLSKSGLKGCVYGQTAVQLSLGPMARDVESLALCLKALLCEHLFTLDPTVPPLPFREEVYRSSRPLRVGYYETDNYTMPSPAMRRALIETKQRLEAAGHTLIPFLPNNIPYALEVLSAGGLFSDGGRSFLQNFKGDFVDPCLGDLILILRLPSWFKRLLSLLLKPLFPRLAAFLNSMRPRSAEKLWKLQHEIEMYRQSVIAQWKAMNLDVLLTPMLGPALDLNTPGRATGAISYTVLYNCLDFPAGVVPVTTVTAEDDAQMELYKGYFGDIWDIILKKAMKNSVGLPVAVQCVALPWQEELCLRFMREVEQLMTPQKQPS

[6] = molecular target: T2, Diacylglycerol lipase-alpha (Homo sapiens); experiment: Inhibition of human DAGLalpha expressed in HEK293T cell membrane using [14C]SAG substrate at 10 uM in presence of 0.05% Triton X-100 by […]; type: cell-based; conditions: HEK-293T
[7] = molecular target: T1, Diacylglycerol lipase-alpha (Mus musculus); experiment: Inhibition of mouse DAGLalpha expressed in HEK293T cell membrane using [14C]SAG substrate at 1000 nM by scintillation counting based radio-TLC assay; type: cell membranes; conditions: HEK-293T

| SMILES | inhibition [1] | inhibition [2] [%] | inhibition [3] | inhibition [4] [%] | inhibition [5] [%] | inhibition [6] [%] | inhibition [7] [%] |
| --- | --- | --- | --- | --- | --- | --- | --- |
| O=C(Oc1ccc([N+](=O)[O-])cc1)N1CCC(C(O)(c2ccc3c(c2)OCO3)c2ccc3c(c2)OCO3)CC1 | inactive | 3 | inactive | 36 | 97 | – | – |
| CCCCCCCCCCC[C@@H](C[C@@H]1OC(=O)[C@H]1CCCCCC)OC(=O)[C@@H](NC=O)[C@@H](C)CC | 69% | 96 | – | 99 | 7 | 99 | 96 |
| CCCCCCCCCCC[C@@H](C[C@@H]1OC(=O)[C@H]1CCCCCC)OC(=O)[C@@H](NC=O)[C@H](C)CC | 60% | 100 | – | 98 | 3 | 99 | 88 |
| CCCCCCCCCCC[C@@H](C[C@@H]1OC(=O)[C@H]1CCCCCC)OC(=O)[C@H](CC)NC=O | 50% | 100 | – | 97 | 12 | 100 | 96 |
| CCCCCCCCCCC[C@@H](C[C@@H]1OC(=O)[C@H]1CCCCCC)OC(=O)[C@H](NC=O)[C@@H](C)CC | 19% | 90 | – | 95 | 0 | 98 | 75 |
| CCCCCCCCCCC[C@@H](C[C@@H]1OC(=O)[C@H]1CCCCCC)OC(=O)[C@H](NC=O)[C@H](C)CC | 33% | 85 | – | 99 | 28 | 98 | 69 |
| CCCCCCCCCCC[C@@H](C[C@@H]1OC(=O)[C@H]1CCCCCC)OC(=O)[C@H](CC(C)C)NC=O [ORLISTAT] | 55% | – | 100% | 98 | 6 | – | – |
